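Compound exposure: 48 hours, 5 concentrations, 96-well plates. GI50 = concentration required for 50% inhibition of growth.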 The source made the active and inactive calls. Rule as the data show it: active = GI50 up to about 1.1 µM and inactive = higher.
Key:
Experiment in all cases: NCI-60 cell line screen, 48 h
[1] = tested on: MOLT-4
[2] = tested on: CAKI-1
[3] = tested on: HOP-92
[4] = tested on: HOP-62
[5] = tested on: RXF 393
[6] = tested on: RPMI-8226
[7] = tested on: OVCAR-4
[8] = tested on: SK-MEL-2
[9] = tested on: MDA-MB-231
[10] = tested on: OVCAR-8
[11] = tested on: OVCAR-5
[12] = tested on: HCT-15
[13] = tested on: HT-29
[14] = tested on: HCT-116
[15] = tested on: OVCAR-3
[16] = tested on: UO-31
[17] = tested on: PC-3
[18] = tested on: NCI-H460
[19] = tested on: SF-268
[20] = tested on: SR

Compound | GI50 [1] | GI50 [2] | GI50 [3] | GI50 [4] | GI50 [5] | GI50 [6] | GI50 [7] | GI50 [8] | GI50 [9] | GI50 [10] | GI50 [11] | GI50 [12] | GI50 [13] | GI50 [14] | GI50 [15] | GI50 [16] | GI50 [17] | GI50 [18] | GI50 [19] | GI50 [20]
O=Cc1ccc2c(c1)CC1(C2)Cc2ccc3c(c2C1)CCC3 (stereo not given) | 6.41 µM (inactive) | 21.1 µM (inactive) | 17 µM (inactive) | 9.4 µM (inactive) | 11.2 µM (inactive) | 6.47 µM (inactive) | 10.8 µM (inactive) | 4.02 µM (inactive) | 3.76 µM (inactive) | 13.1 µM (inactive) | > 44.9 µM (inactive) | 8.51 µM | 19 µM (inactive) | 6.82 µM (inactive) | 6.68 µM (inactive) | 11.9 µM (inactive) | 5.51 µM (inactive) | 17.2 µM (inactive) | 12.9 µM (inactive) | 4.42 µM (inactive)
COc1cccc2c1cc([N+](=O)[O-])c1c(C(=O)O)cc3c(c12)OCO3 [ARISTOLOCHIC ACID] | 26.7 µM (inactive) | 27.2 µM (inactive) | > 78 µM (inactive) | 23.7 µM (inactive) | 23.4 µM (inactive) | 24.7 µM (inactive) | 32 µM (inactive) | 57.8 µM (inactive) | 39.1 µM (inactive) | 28.7 µM (inactive) | 25.4 µM (inactive) | 18.2 µM | 0.889 µM (active) | 29.9 µM (inactive) | 33.9 µM (inactive) | 40.6 µM (inactive) | 46.5 µM (inactive) | 27.7 µM (inactive) | 33.8 µM (inactive) | 21.7 µM (inactive)
Clc1ccc(COC(Cn2ccnc2)c2ccc(Cl)cc2Cl)cc1 (stereo not given) [ECONAZOLE] | 2.99 µM (inactive) | 11.6 µM (inactive) | 10.6 µM (inactive) | 12.9 µM (inactive) | 14.9 µM (inactive) | 8.26 µM (inactive) | 11.8 µM (inactive) | 14.8 µM (inactive) | 13.3 µM (inactive) | 11.4 µM (inactive) | 11.5 µM (inactive) | 12.7 µM | 8.69 µM (inactive) | 8.71 µM (inactive) | 10.9 µM (inactive) | 4.13 µM (inactive) | 10.8 µM (inactive) | 11.9 µM (inactive) | 14.3 µM (inactive) | 5.32 µM (inactive)
COC(=O)C1=C(C)NC(C)=C(C(=O)OCCCN2CCC(c3ccccc3)(c3ccccc3)CC2)[C@H]1c1cccc([N+](=O)[O-])c1 [NIGULDIPINE] | 1.95 µM (inactive) | 3.98 µM (inactive) | 1.39 µM (inactive) | 4.6 µM (inactive) | 1.86 µM (inactive) | 1.61 µM (inactive) | 1.55 µM (inactive) | 2.41 µM (inactive) | 1.3 µM (inactive) | 1.95 µM (inactive) | 2.9 µM (inactive) | 1.94 µM | 1.3 µM (inactive) | 1.51 µM (inactive) | 1.46 µM (inactive) | 2 µM (inactive) | 1.52 µM (inactive) | 1.81 µM (inactive) | 1.79 µM (inactive) | 2.26 µM (inactive)
